Experimental data published in ChEMBL document CHEMBL1128242, “Polyiodinated triglyceride analogs as potential computed tomography imaging agents for the liver” (J Med Chem, 1995).

Tests used:
Rattus norvegicus [1] = experiment: Distribution of radioactivity was determined in thyroid at 30 min after intravenous administration of [125I]-labeled 2-oleoglycerol 1,3-Bis-[omega-(3-amino-2,4,6-triiodophenyl)alkanoates] in rats; assay type: ADME, organism-based, Thyroid gland; conditions: in vivo, 0.5 h
Rattus norvegicus [2] = experiment: Distribution of radioactivity was determined in kidney at 24 hr after intravenous administration of [125I]-labeled 2-oleoglycerol 1,3-Bis-[omega-(3-amino-2,4,6-triiodophenyl)alkanoates] in rats; assay type: ADME, organism-based; conditions: in vivo
Rattus norvegicus [3] = experiment: Distribution of radioactivity was determined in blood at 30 min after intravenous administration of 1,3-Disubstituted Triacylglycerols in rats; assay type: ADME, organism-based; conditions: in vivo, 0.5 h
Rattus norvegicus [4] = experiment: Distribution of radioactivity was determined in plasma at 30 min after intravenous administration of [125I]-labeled 2-oleoglycerol 1,3-Bis-[omega-(3-amino-2,4,6-triiodophenyl)alkanoates] in rats; assay type: ADME, organism-based; conditions: in vivo, 0.5 h
Rattus norvegicus [5] = experiment: Distribution of radioactivity was determined in spleen at 24 hr after intravenous administration of 1,3-Disubstituted Triacylglycerols in rats; assay type: ADME, organism-based; conditions: in vivo
Rattus norvegicus [6] = experiment: Distribution of radioactivity was determined in spleen at 24 hr after intravenous administration of [125I]-labeled 2-oleoglycerol 1,3-Bis-[omega-(3-amino-2,4,6-triiodophenyl)alkanoates] in rats; assay type: ADME, organism-based; conditions: in vivo
Rattus norvegicus [7] = experiment: Distribution of radioactivity was determined in spleen at 30 min after intravenous administration of [125I]-labeled 2-oleoglycerol 1,3-Bis-[omega-(3-amino-2,4,6-triiodophenyl)alkanoates] in rats; assay type: ADME, organism-based; conditions: in vivo, 0.5 h
Rattus norvegicus [8] = experiment: Distribution of radioactivity was determined in liver at 30 min after intravenous administration of [125I]-labeled 2-oleoglycerol 1,3-Bis-[omega-(3-amino-2,4,6-triiodophenyl)alkanoates] in rats; assay type: ADME, organism-based; conditions: in vivo, 0.5 h
Rattus norvegicus [9] = experiment: Polyacrylamide Gel Electrophoresis (PAGE) to determined the concentration of high density lipoprotein (HDL) in rats after iv administration of [125I]-labeled 2-Oleolyl 1,3-disubstituted triglycerols was reported; assay type: ADME, organism-based; conditions: in vivo
Rattus norvegicus [10] = experiment: Distribution of radioactivity was determined in liver at 3h after intravenous administration of [125I]-labeled 2-oleoglycerol 1,3-Bis-[omega-(3-amino-2,4,6-triiodophenyl)alkanoates] in rats; assay type: ADME, organism-based; conditions: in vivo
Rattus norvegicus [11] = experiment: Distribution of radioactivity was determined in blood at 48 hr after intravenous administration of 1,3-Disubstituted Triacylglycerols in rats; assay type: ADME, organism-based; conditions: in vivo
Rattus norvegicus [12] = experiment: Distribution of radioactivity was determined in heart at 24 after intravenous administration of [125I]-labeled 2-oleoglycerol 1,3-Bis-[omega-(3-amino-2,4,6-triiodophenyl)alkanoates] in rats; assay type: ADME, organism-based; conditions: in vivo
Rattus norvegicus [13] = experiment: Distribution of radioactivity was determined in spleen at 3h after intravenous administration of [125I]-labeled 2-oleoglycerol 1,3-Bis-[omega-(3-amino-2,4,6-triiodophenyl)alkanoates] in rats; assay type: ADME, organism-based; conditions: in vivo

SMILES | Distribution of radioactivity (Rattus norvegicus [1]) [% dose/g] | Distribution of radioactivity (Rattus norvegicus [2]) [% dose/g] | Distribution of radioactivity (Rattus norvegicus [3]) [% dose/organ] | Distribution of radioactivity (Rattus norvegicus [4]) [% dose/g] | Distribution of radioactivity (Rattus norvegicus [5]) [% dose/organ] | Distribution of radioactivity (Rattus norvegicus [6]) [% dose/g] | Distribution of radioactivity (Rattus norvegicus [7]) [% dose/g] | Distribution of radioactivity (Rattus norvegicus [8]) [% dose/g] | Radioactivity (Rattus norvegicus [9]) [%] | Distribution of radioactivity (Rattus norvegicus [10]) [% dose/g] | Distribution of radioactivity (Rattus norvegicus [11]) [% dose per organ] | Distribution of radioactivity (Rattus norvegicus [12]) [% dose/g] | Distribution of radioactivity (Rattus norvegicus [13]) [% dose/g]
CCCCCCCC/C=C/CCCCCCCC(=O)OC(COC(=O)CCCCCc1c(I)cc(I)c(N)c1I)COC(=O)CCCCCc1c(I)cc(I)c(N)c1I | 0.54 | 0.25 | 4.8 | 0.65 | 5.8 | 10.4 | 24.4 | 7.01 | 7 | 8.74 | 0.8 | 0.07 | 23.5
CCCCCCCC/C=C/CCCCCCCC(=O)OC(COC(=O)CCCCc1c(I)cc(I)c(N)c1I)COC(=O)CCCCc1c(I)cc(I)c(N)c1I | 0.54 | 0.2 | 0.9 | 0.1 | 6.4 | 13.7 | 17.9 | 7.37 | 5.5 | 6.94 | 0.7 | 0.07 | 14.5
CCCCCCCC/C=C/CCCCCCCC(=O)OC(COC(=O)C(CC)Cc1c(I)cc(I)c(N)c1I)COC(=O)C(CC)Cc1c(I)cc(I)c(N)c1I (stereo not given) | 2.88 | 0.05 | 2.6 | 0.42 | 12.5 | 21.7 | 24.8 | 9.67 | 2.5 | 9 | 0.1 | 0.06 | 17.7
CCCCCCCC/C=C/CCCCCCCC(=O)OC(COC(=O)CCCCCCc1c(I)cc(I)c(N)c1I)COC(=O)CCCCCCc1c(I)cc(I)c(N)c1I | 0.31 | 0.22 | 6.6 | 0.83 | 0.8 | 1.43 | 21.8 | 7.23 | 0.3 | 5.84 | 0.4 | 0.1 | 15.3
CCCCCCCC/C=C/CCCCCCCC(=O)OC(COC(=O)Cc1c(I)cc(I)c(N)c1I)COC(=O)Cc1c(I)cc(I)c(N)c1I | 0.16 | 0.07 | 7.6 | 1.25 | 12.2 | 24.2 | 23.4 | 7.9 | 0.7 | 10.3 | 0.1 | 0.03 | 23.6
